Experimental data as given in publication PMC9268428, “Determination of the Highly Sensitive Carboxyl-Graphene Oxide-Based Planar Optical Waveguide Localized Surface Plasmon Resonance Biosensor” (Nanomaterials, 2022).
Structures can show the parent of a compound that is named as a salt.

Target: T1, streptavidin (Streptomyces avidinii, UniProt P22629)
T1 construct: free analyte in PBS
Test: localized surface plasmon resonance on graphene-oxide optical waveguide, affinity constant from ka/kd
Type: binding
Conditions: read-out: Kf (converted)
From the text: localized surface plasmon resonance on graphene-oxide optical waveguide, affinity constant from ka/kd on streptavidin | ka and kd of biotin binding with streptavidin were estimated to be

T1 sequence (P22629 25-183): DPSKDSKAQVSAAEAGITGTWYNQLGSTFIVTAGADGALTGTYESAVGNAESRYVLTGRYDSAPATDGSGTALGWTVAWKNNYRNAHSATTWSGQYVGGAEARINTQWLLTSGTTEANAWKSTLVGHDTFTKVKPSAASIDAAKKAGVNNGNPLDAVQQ

## NCCCNC(=O)CCCC[C@@H]1SC[C@@H]2NC(=O)N[C@@H]21 [N-(+)-biotinyl-3-aminopropylammonium trifluoroacetate]
  Kd: 0.137 nM
